Results as given in patent US10406227B2, “Photoactivated molecules for light-induced modulation of the activity of electrically excitable cells and methods of using same” (University of Southern California, priority 2012, dated 2019).
Entries after “also recorded” stand apart in the source; their conditions may differ. Where two headings read alike, the source gives them in different places.

Key:
[1] = system: whole-mount retinas from RCS rats; experiment: Whole-mount retina multi-electrode array recording; format: cell-based, rat
Excerpt: FIGS. 14A-14B depicts data from whole-mount retinas from RCS rats. […] Each bin represents the frequency of spikes for 1 second. Before Rubpy treatment (14A), illumination at 480 nm elicited minimal change in spike frequency. […] Downward arrows mark the time of 100 ms (1st) and 1 second (2nd to fourth) light stimuli.
The retina will be freshly dissected from Royal College of Surgeons (RCS) rats (9 months' or older to ensure total loss of photoreceptors). The whole-mount retina will then be placed onto a multi-electrode array with the ganglion cell layer side facing the electrodes and is held down on the array using a lightly weighted porous membrane. Extracellular field potentials are recorded from 15 or 75 μm diameter electrodes using an MEA1060-Up amplifier and MC Rack software (Multi-Channel Systems). The activity of the retinal in response to illumination is monitored before and after PVN incubation. The retina is continuously perfused with oxygenated (95% O2, 5% CO2), heated (32C) Ames' Medium for baseline activity. The retina is then perfused with Ames' Medium containing PVN for 30 min to 1 hr, followed by 10 min wash with regular Ames' Medium before recording in Ames' Medium with 5-10 mM ascorbate. The retina will be illuminated by white LED light through a bandpass excitation filter (460-500 nm) with durations of 100 μs, 1 ms, 10 ms, 100 ms, 1 s and 30 s. […]

[2] = cited from earlier work
RCS rats [3] = experiment: Retina histology / pathology after intravitreal injection; format: in vivo, rat
Excerpt: (§1) This finding was reproduced in 3 of 3 RCS rats injected with Rubpy-C17, and in 2 of 2 control (sham injection) RCS rats.

RCS rats [4] = experiment: Pupillary light reflex after intravitreal injection; format: in vivo, rat
Excerpt: FIG. 16 depicts the papillary light response in RCS rats.
as §1

chromaffin cells = experiment: Cell-attached membrane perforation test (capacitive charging transient); format: cell-based, mouse; details: 18 μM in patch pipette; 10 minutes after gigaseal formation
Excerpt: FIGS. 5A-5H depict data from various experiments related to characteristics of RubpyC17-loaded cells. […] Inset images shown to the right of trace confirmed proper integration of RubpyC17 in patched cells. FIGS. 5C-5E show the light-induced action potential firing in chromaffin cells was not due to biophysical changes in voltage-gated ion channels as there were no significant changes in current-voltage relationships (C-D) nor in steady-state activation curve (E) in RubpyC17-loaded chromaffin cells before (open circle) or during ([…]) light illumination. […] Peak inward currents from each stimulation jump were plotted against corresponding stimulating voltages (n=6). […] Data from representative cell is shown (n=5). […] Currents resulting from capacitor-like behavior of chromaffin cell membranes during hyperpolarizing jumps to −85 mV from a resting membrane potential of −80 mV were recorded 5 min following giga-seal formation for amphoterecin B (bottom trace) or 10 min following giga-seal formation for RubpyC17 (top trace).
Finally, to test whether illumination of RubpyC17 incorporated in cell membranes causes nonspecific membrane poration or other damage, 18 μM RubpyC17 was loaded inside a patch pipette and attached to a cell (gigaseal formation) in the cell-attached configuration. […]

## [Ru(bpy)2(bpy-C17)](PF6)2 [RubpyC17]
[1]; 100 micromolar for 30 minutes, 480 nm
  spike frequency on illumination: spike frequency increased
[1]; photoreceptor-degenerate retina
  light-induced action potential firing: respond to illumination by firing action potentials
[2]; photo-activated RubpyC17 to oxidant ferricyanide, aqueous solution
  electron transfer rate ket: ~6.5e+09 M⁻¹ s⁻¹
[2]; reductant ascorbate to photo-activated RubpyC17
  electron transfer rate ket: ~2e+07 M⁻¹ s⁻¹
RCS rats [3]; 3 days after injection, preliminary
  histology of the retina: no evidence of retinal cell death or white blood cell infiltrates
RCS rats [3]; eyes injected with Rubpy-C17
  initial pathology studies: absence of obvious signs of deleterious effects
RCS rats [4]; injected eye
  pupillary light reflex time: < 3 s
RCS rats [4]; injected eye vs non-injected eye
  pupillary light reflex: vigorous pupillary light reflex was observed; also recorded: pupil constricts
Chromaffin cells
  capacitive charging transient (membrane perforation): an increase in the capacitive charging transient was not detected
